{"source": "patent US20260285850A1", "about": "“SUBSTITUTED OXAZOLIDINONES AND IMIDAZOLINONES AS HERBICIDES” (FMC CORPORATION, priority 2023, published 2026)", "format_in_all_cases": "in vivo", "key": {"[1]": {"tested_on": "barnyardgrass (Echinochloa crus-galli)", "test": "Test A preemergence soil spray, visual injury rating 0-100", "settings": "10 days, 0 = no effect, 100 = complete control", "excerpt": "(§1) Seeds of plant species selected from barnyardgrass (Echinochloa crus-galli), blackgrass (Alopecurus myosuroides), corn (Zea mays), foxtail, giant (giant foxtail, Setaria faberi), green foxtail (Setaria viridis), goosegrass (Eleusine indica), kochia (Bassia scoparia), oat, wild (wild oat, Avena fatua), palmer (palmer amaranth, palmer pigweed, Amaranthus palmeri), ragweed (common ragweed, Ambrosia artemisiifolia), ryegrass, Italian (italian ryegrass, Lolium multiflorum), soybean (Glycine max) and wheat (Triticum aestivum) were planted into a blend of loam soil and sand and treated preemergence with a directed soil spray using test chemicals formulated in a non-phytotoxic solvent mixture which included a surfactant.\n(§2) At the same time, plants selected from these crops and weed species and also galium (catchweed bedstraw, Galium aparine) and horseweed (Erigeron canadensis) were planted in pots containing the same blend of loam soil and sand and treated with postemergence applications of test chemicals formulated in the same manner. Plants ranged in height from 2 to 10 cm and were in the one- to two-leaf stage for the postemergence treatment. Treated plants and untreated controls were maintained in a greenhouse for 10 days, after which time all treated plants were compared to untreated controls and visually evaluated for injury. Plant response ratings, summarized in Table A, are based on a 0 to 100 scale where 0 is no effect and 100 is complete control. A dash (-) response means no test result."}, "[2]": {"tested_on": "blackgrass (Alopecurus myosuroides)", "test": "Test A preemergence soil spray, visual injury rating 0-100", "settings": "10 days, 0 = no effect, 100 = complete control", "excerpt": "as §1, §2"}, "corn (Zea mays) [3]": {"tested_on": "corn (Zea mays)", "test": "Test A preemergence soil spray, visual injury rating 0-100", "settings": "10 days, 0 = no effect, 100 = complete control", "excerpt": "as §1, §2"}, "kochia (Bassia scoparia) [4]": {"tested_on": "kochia (Bassia scoparia)", "test": "Test A preemergence soil spray, visual injury rating 0-100", "settings": "10 days, 0 = no effect, 100 = complete control", "excerpt": "as §1, §2"}, "[5]": {"tested_on": "oat, wild (wild oat, Avena fatua)", "test": "Test A preemergence soil spray, visual injury rating 0-100", "settings": "10 days, 0 = no effect, 100 = complete control", "excerpt": "as §1, §2"}, "[6]": {"tested_on": "palmer (palmer amaranth, palmer pigweed, Amaranthus palmeri)", "test": "Test A preemergence soil spray, visual injury rating 0-100", "settings": "10 days, 0 = no effect, 100 = complete control", "excerpt": "as §1, §2"}, "[7]": {"tested_on": "ragweed (common ragweed, Ambrosia artemisiifolia)", "test": "Test A preemergence soil spray, visual injury rating 0-100", "settings": "10 days, 0 = no effect, 100 = complete control", "excerpt": "as §1, §2"}, "[8]": {"tested_on": "ryegrass, Italian (italian ryegrass, Lolium multiflorum)", "test": "Test A preemergence soil spray, visual injury rating 0-100", "settings": "10 days, 0 = no effect, 100 = complete control", "excerpt": "as §1, §2"}, "soybean (Glycine max) [9]": {"tested_on": "soybean (Glycine max)", "test": "Test A preemergence soil spray, visual injury rating 0-100", "settings": "10 days, 0 = no effect, 100 = complete control", "excerpt": "as §1, §2"}, "[10]": {"tested_on": "wheat (Triticum aestivum)", "test": "Test A preemergence soil spray, visual injury rating 0-100", "settings": "10 days, 0 = no effect, 100 = complete control", "excerpt": "as §1, §2"}, "[11]": {"tested_on": "barnyardgrass (Echinochloa crus-galli)", "test": "Test A postemergence application, visual injury rating 0-100", "settings": "Postemergence", "excerpt": "as §1, §2"}, "[12]": {"tested_on": "blackgrass (Alopecurus myosuroides)", "test": "Test A postemergence application, visual injury rating 0-100", "settings": "Postemergence", "excerpt": "as §1, §2"}, "corn (Zea mays) [13]": {"tested_on": "corn (Zea mays)", "test": "Test A postemergence application, visual injury rating 0-100", "settings": "Postemergence", "excerpt": "as §1, §2"}, "[14]": {"tested_on": "galium (catchweed bedstraw, Galium aparine)", "test": "Test A postemergence application, visual injury rating 0-100", "settings": "Postemergence", "excerpt": "as §1, §2"}, "[15]": {"tested_on": "horseweed (Erigeron canadensis)", "test": "Test A postemergence application, visual injury rating 0-100", "settings": "Postemergence", "excerpt": "as §1, §2"}, "kochia (Bassia scoparia) [16]": {"tested_on": "kochia (Bassia scoparia)", "test": "Test A postemergence application, visual injury rating 0-100", "settings": "Postemergence", "excerpt": "as §1, §2"}, "[17]": {"tested_on": "oat, wild (wild oat, Avena fatua)", "test": "Test A postemergence application, visual injury rating 0-100", "settings": "Postemergence", "excerpt": "as §1, §2"}, "[18]": {"tested_on": "palmer (palmer amaranth, palmer pigweed, Amaranthus palmeri)", "test": "Test A postemergence application, visual injury rating 0-100", "settings": "Postemergence", "excerpt": "as §1, §2"}, "[19]": {"tested_on": "ragweed (common ragweed, Ambrosia artemisiifolia)", "test": "Test A postemergence application, visual injury rating 0-100", "settings": "Postemergence", "excerpt": "as §1, §2"}, "[20]": {"tested_on": "ryegrass, Italian (italian ryegrass, Lolium multiflorum)", "test": "Test A postemergence application, visual injury rating 0-100", "settings": "Postemergence", "excerpt": "as §1, §2"}, "soybean (Glycine max) [21]": {"tested_on": "soybean (Glycine max)", "test": "Test A postemergence application, visual injury rating 0-100", "settings": "Postemergence", "excerpt": "as §1, §2"}, "[22]": {"tested_on": "wheat (Triticum aestivum)", "test": "Test A postemergence application, visual injury rating 0-100", "settings": "Postemergence", "excerpt": "as §1, §2"}, "[23]": {"settings": "31 g ai/ha, greenhouse 10 days, 0 no effect, 100 complete control"}, "[24]": {"settings": "125 g ai/ha, 10 days, 0 is no effect, 100 is complete control"}}}
{"compound": "CCCS(=O)(=O)OC(=O)C1C=CC(NC(=O)C2(C)CN(c3cc(Cl)cc(Cl)c3)C(=O)O2)C1", "note": "(mixture of isomers) [Compound 79]", "values": [{"measurement": "Barnyardgrass plant response rating (0-100)", "setting": "[1]; 31 g ai/ha", "value": 30}, {"measurement": "Barnyardgrass plant response rating (0 to 100 scale)", "setting": "[1]; 125 g ai/ha", "value": 90}, {"measurement": "Blackgrass plant response rating (0-100)", "setting": "[2]; 31 g ai/ha", "value": 10}, {"measurement": "Blackgrass plant response rating (0 to 100 scale)", "setting": "[2]; 125 g ai/ha", "value": 30}, {"measurement": "Corn plant response rating (0-100)", "setting": "corn (Zea mays) [3]; 31 g ai/ha", "value": 0}, {"measurement": "Corn plant response rating (0 to 100 scale)", "setting": "corn (Zea mays) [3]; 125 g ai/ha", "value": 30}, {"measurement": "Kochia plant response rating (0-100)", "setting": "kochia (Bassia scoparia) [4]; 31 g ai/ha", "value": 30}, {"measurement": "Kochia plant response rating (0 to 100 scale)", "setting": "kochia (Bassia scoparia) [4]; 125 g ai/ha", "value": 70}, {"measurement": "Oat, Wild plant response rating (0-100)", "setting": "[5]; 31 g ai/ha", "value": 20}, {"measurement": "Oat, Wild plant response rating (0 to 100 scale)", "setting": "[5]; 125 g ai/ha", "value": 30}, {"measurement": "Amaranth, Palmer plant response rating (0-100)", "setting": "[6]; 31 g ai/ha", "value": 80}, {"measurement": "Amaranth, Palmer plant response rating (0 to 100 scale)", "setting": "[6]; 125 g ai/ha", "value": 90}, {"measurement": "Ragweed plant response rating (0-100)", "setting": "[7]; 31 g ai/ha", "value": 0}, {"measurement": "Ragweed plant response rating (0 to 100 scale)", "setting": "[7]; 125 g ai/ha", "value": 20}, {"measurement": "Ryegrass, Italian plant response rating (0-100)", "setting": "[8]; 31 g ai/ha", "value": 20}, {"measurement": "Ryegrass, Italian plant response rating (0 to 100 scale)", "setting": "[8]; 125 g ai/ha", "value": 80}, {"measurement": "Soybean plant response rating (0-100)", "setting": "soybean (Glycine max) [9]; 31 g ai/ha", "value": 0}, {"measurement": "Soybean plant response rating (0 to 100 scale)", "setting": "soybean (Glycine max) [9]; 125 g ai/ha", "value": 70}, {"measurement": "Wheat plant response rating (0-100)", "setting": "[10]; 31 g ai/ha", "value": 10}, {"measurement": "Wheat plant response rating (0 to 100 scale)", "setting": "[10]; 125 g ai/ha", "value": 80}, {"measurement": "Barnyardgrass plant response rating (0 to 100 scale)", "setting": "[11]; [23]", "value": 90}, {"measurement": "Barnyardgrass plant response rating (0 to 100 scale)", "setting": "[11]; [24]", "value": 90}, {"measurement": "Blackgrass plant response rating (0 to 100 scale)", "setting": "[12]; [23]", "value": 60}, {"measurement": "Blackgrass plant response rating (0 to 100 scale)", "setting": "[12]; [24]", "value": 90}, {"measurement": "Corn plant response rating (0 to 100 scale)", "setting": "corn (Zea mays) [13]; [23]", "value": 90}, {"measurement": "Corn plant response rating (0 to 100 scale)", "setting": "corn (Zea mays) [13]; [24]", "value": 100}, {"measurement": "Galium plant response rating (0 to 100 scale)", "setting": "[14]; [23]", "value": 80}, {"measurement": "Galium plant response rating (0 to 100 scale)", "setting": "[14]; [24]", "value": 80}, {"measurement": "Horseweed plant response rating (0 to 100 scale)", "setting": "[15]; [23]", "value": 40}, {"measurement": "Horseweed plant response rating (0 to 100 scale)", "setting": "[15]; [24]", "value": 70}, {"measurement": "Kochia plant response rating (0 to 100 scale)", "setting": "kochia (Bassia scoparia) [16]; [23]", "value": 70}, {"measurement": "Kochia plant response rating (0 to 100 scale)", "setting": "kochia (Bassia scoparia) [16]; [24]", "value": 80}, {"measurement": "Oat, Wild plant response rating (0 to 100 scale)", "setting": "[17]; [23]", "value": 90}, {"measurement": "Oat, Wild plant response rating (0 to 100 scale)", "setting": "[17]; [24]", "value": 90}, {"measurement": "Amaranth, Palmer / Pigweed, Palmer plant response rating (0 to 100 scale)", "setting": "[18]; [23]", "value": 70}, {"measurement": "Amaranth, Palmer / Pigweed, Palmer plant response rating (0 to 100 scale)", "setting": "[18]; [24]", "value": 90}, {"measurement": "Ragweed plant response rating (0 to 100 scale)", "setting": "[19]; [23]", "value": 50}, {"measurement": "Ragweed plant response rating (0 to 100 scale)", "setting": "[19]; [24]", "value": 60}, {"measurement": "Ryegrass, Italian plant response rating (0 to 100 scale)", "setting": "[20]; [23]", "value": 50}, {"measurement": "Ryegrass, Italian plant response rating (0 to 100 scale)", "setting": "[20]; [24]", "value": 60}, {"measurement": "Soybean plant response rating (0 to 100 scale)", "setting": "soybean (Glycine max) [21]; [23]", "value": 40}, {"measurement": "Soybean plant response rating (0 to 100 scale)", "setting": "soybean (Glycine max) [21]; [24]", "value": 90}, {"measurement": "Wheat plant response rating (0 to 100 scale)", "setting": "[22]; [23]", "value": 80}, {"measurement": "Wheat plant response rating (0 to 100 scale)", "setting": "[22]; [24]", "value": 90}]}
